Consider eight compounds from US20110319398A1 (priority 2010, published 2011).

SMILES strings stand for the structures.

The test system of series [1] is YopE translocation into HEp-2 cells. It is filed as cell-based, Y. pseudotuberculosis. The note with it: 60 μM compound; HEp-2 cells infected with Yptb, 45 minutes.
The subject of series [2] is YopE leaked into culture supernatants. It is filed as cell-based, Y. pseudotuberculosis. The note with it: 60 μM compound, HEp-2 cells infected with WT Yptb, compared to DMSO.
Series [3] relates to YopE translocation into the cytosol of HEp-2 cells. It is filed as cell-based, Y. pseudotuberculosis. Conditions: 60 μM compound, compared to DMSO control.
The next series has as its system Yptb WT IP2666. It is filed as cell-based, Y. pseudotuberculosis. The note with it: 60 μM compound, 26 C, 7 hrs.
Series [4] relates to ExoS translocation from P. aeruginosa Pa388 into HEp-2 cells. It is filed as cell-based.
The subject of series [5] is YscF polymer (TTSS needle). Set-up: species or system Y. pseudotuberculosis. The note with it: 60 μM compound, 1 mM BS3, Western blot with α-YscF.
The test system of the next series is HEp-2 cells. In words: LDH release assay. It is filed as cell-based. The note with it: 60 μM compound, absence of Yptb. Here is the method: Compounds were resuspended in RPMI supplemented with 5% FBS to a final concentration of 60 μM. Media was replaced with a volume of 100 μL and cells were incubated at 37 C and 5% CO2. A 50 μL sample was taken from the wells at 2 hrs and 24 hrs for quantification of LDH. LDH in supernatants was quantified using the Promega Cytotox 96 Non-Radioactive Cytotoxicity Assay Kit. Control samples for lysis in the absence of compounds were incubated for 45 minutes in Lysis Buffer (supplied in the kit) then collected at the same time points. The OD at 492 nm was measured spectrophotometrically on a SpectraMax 5 plate reader (Molecular Devices, Sunnyvale, Calif.).
The remaining 12 compounds were evaluated for toxicity to either Yptb or HEp-2 cells. […] The 9 non-antibacterial compounds were assessed for their ability to cause damage to epithelial cells by monitoring the release of lactate dehydrogenase (LDH), a cytoplasmic enzyme whose presence in cell supernatants indicates membrane damage. HEp-2 cells were incubated with 60 μM of each compound, in the absence of Yptb. Tissue culture supernatants were collected after 2 or 24 hours and assessed for LDH levels. […] In contrast, C35 had above baseline LDH release levels at 2 hours and this effect was exacerbated at 24 hours (FIG. 3B). […] Because of the high-level of toxicity caused by C35 at both time points, it was excluded from further characterization. In all subsequent experiments with the remaining 8 compounds, HEp-2 cells were exposed to compounds for 2 hours or less.

The subject of series [6] is YadA-mediated autoagglutination. It is filed as cell-based, Y. pseudotuberculosis. The note with it: 60 μM C20, 3 hrs at 37 C.
In series [7] the test system is Sheep red blood cells infected with Yptb. It is filed as cell-based.
Series [8] has as its system adherence of Yptb to HEp-2 cells. It is filed as cell-based, Y. pseudotuberculosis.
A further series relates to YscF. It is filed as cell-based, Y. pseudotuberculosis. The note with it: 60 μM compound, 5 mM CaCl2, 37 C, 1.5 hours.
The subject of another series is Yop secretion. It is filed as cell-based, Y. pseudotuberculosis. Conditions: 60 μM compound, secretion media (absence of calcium), 37 C.
Series [9] has as its system V. cholerae. The note with it: mouse, in vivo; cited from earlier work.
The test system of series [10] is V. cholerae. Conditions: cited from earlier work.

As for `CCOc1ccc(NC(=O)c2cnccn2)cc1` [Compound C7, N-(4-ethoxyphenyl)pyrazine-2-carboxamide], the “Inhibition of YopE-mediated cell rounding” value in [1] is given as “cell-rounding defect was weak”. Besides, the “YopE/Yop leakage into culture supernatants” value in series [2] is on record as “significant leakage”. Besides, in series [3], the “YopE translocation into HEp-2 cells” value is reported as “did not inhibit translocation of YopE”. For the same compound, in the series with Yptb WT IP2666, the “Effect on bacterial growth (OD600)” value is recorded as “no effect on bacterial growth”. Also, the ExoS-dependent cell rounding result in series [4] is listed as “little or no effect”.

In the case of `O=C1NC2=C(C(=O)c3ccccc32)C(c2ccccc2)S1` (centres unmarked) [Compound C15, 4-phenyl-1,4-dihydroindeno[1,2-d][1,3]thiazine-2,5-dione], in series [5], the “YscF cross-linking pattern (dimer crosslink)” value (shortened to “YscF cross-linking pattern”) is “weaker dimer crosslink”. The “LDH release at 2 hours” value in the series on HEp-2 cells (2 hours) is reported as “elevated LDH release”. For the same compound, in the series on HEp-2 cells, the “LDH release at 24 hours” value is on record as “did not cause further membrane damage”. In addition, the “YopE/Yop leakage into culture supernatants” value in series [2] is recorded as “significant leakage”. Besides, the “Effect on bacterial growth (OD600)” value in the series on Yptb WT IP2666 is listed as “no effect on bacterial growth”. Further, in series [4], the ExoS-dependent cell rounding entry is “little or no effect”.

For `O=C(c1coc2nc3ccccc3nc12)N1CCN(c2ccccc2)CC1` [Compound C19, furo[3,2-b]quinoxalin-3-yl-(4-phenylpiperazin-1-yl)methanone], in series [2], the “YopE/Yop leakage into culture supernatants” value was “significant leakage”. Moreover, the “Effect on bacterial growth (OD600)” value in the series on Yptb WT IP2666 is on record as “no effect on bacterial growth”. In addition, the ExoS-dependent cell rounding result in series [4] is reported as “little or no effect”.

As to `Cc1nn(-c2ccccc2)c(C)c1/N=C/c1c(O)ccc2ccccc12` [Compound C20, 1-[(E)-(3,5-dimethyl-1-phenyl-pyrazol-4-yl)iminomethyl]naphthalen-2-ol], in series [5], the “YscF cross-linking pattern” value is given as “weaker dimer crosslink”. Further, the “LDH release at 24 hours” value in the series on HEp-2 cells is given as “slightly elevated LDH release”. For the same compound, the “YopE/Yop leakage into culture supernatants” value in [2] is on record as “elevated levels of Yop leakage”. Moreover, in series [6], the “Autoagglutination activity of Yptb” value is “unaffected”. The “Hemolysis (leakage of hemoglobin) of SRBCs infected with Yptb” value in [7] is “slightly reduced leakage of hemoglobin”. In addition, in the series on Yptb WT IP2666, the “Effect on bacterial growth (OD600)” value is “no effect on bacterial growth”. Moreover, the ExoS-dependent cell rounding result in series [4] is listed as “reduced cell-rounding”. In [8], the “Binding of Invasin-deleted (Δinv) Yptb to HEp-2 cells” value was “did not block the ability of C20 to further inhibit binding”. In series [8] (60 μM compound, WT Yptb, ELISA), the “Binding of Yptb to HEp-2 cells, of the levels of the DMSO-treated control” value is listed as 15-20%.

Turning to `c1ccc2c(-c3csc(-c4ccncc4)n3)c[nH]c2c1` [Compound C24, 4-(1H-indol-3-yl)-2-(4-pyridyl)thiazole], in the series with HEp-2 cells, the “LDH release at 24 hours” value was “slightly elevated LDH release”. The “Surface YscF staining” value in the series on YscF is recorded as “reduced”. Further, the “YopE/Yop leakage into culture supernatants” value in series [2] is recorded as “significant leakage”. Further, the “Effect on bacterial growth (OD600)” value in the series on Yptb WT IP2666 is reported as “no effect on bacterial growth”. For the same compound, the ExoS-dependent cell rounding result in [4] is given as “reduced cell-rounding”.

`Cc1ccc(NC(=O)Nc2cc3c(cc2N2CCCC2)n(C)c(=O)n3C)cc1C` [Compound C34, 1-(1,3-dimethyl-2-oxo-6-pyrrolidin-1-yl-benzimidazol-5-yl)-3-(3,4-dimethylphenyl)urea]: the “YscF cross-linking pattern” value in [5] is “consistently weaker”. Also, the “Ability to secrete Yops” value in the series with Yop secretion is listed as “secreted less, but detectable levels of Yops”. Further, the “Inhibition of YopE-mediated cell rounding” value in series [1] is reported as “potent inhibitor of cell-rounding”. The “YopE/Yop leakage into culture supernatants” value in series [2] is given as “elevated levels of Yop leakage”. The “YopE translocation into HEp-2 cells” value in [3] is reported as “did not inhibit translocation of YopE”. Further, in the series with Yptb WT IP2666, the “Effect on bacterial growth (OD600)” value is on record as “no effect on bacterial growth”. In series [4], the ExoS-dependent cell rounding entry was “reduced cell-rounding”.

As for `Cc1ccc(C2=N/C(=C/Nc3ccc4c(c3)OCCO4)C(=O)O2)cc1` [Compound C38, (4E)-4-[(2,3-dihydro-1,4-benzodioxin-6-ylamino)methylene]-2-(p-tolyl)oxazol-5-one], the “Surface YscF staining” value in the series on YscF is given as “reduced”. The “YopE/Yop leakage into culture supernatants” value in series [2] is “elevated levels of Yop leakage”. Moreover, the “Effect on bacterial growth (OD600)” value in the series with Yptb WT IP2666 is recorded as “no effect on bacterial growth”. Moreover, the ExoS-dependent cell rounding result in [4] is listed as “reduced cell-rounding”.

For the compound `O=C(O)CCCN1C(=O)c2cccc3cccc(c23)C1=O` [Virstatin], in the series on V. cholerae [9], the “Bacterial burden on mice infected with V. cholerae” value is “reduces the bacterial burden”. Further, the “Effects on bacterial growth” value in the series on V. cholerae [10] was “without deleterious effects on bacterial growth”.
